# Experimental data: US9682982B2, “Inhibitors of adapter associated kinase 1, compositions comprising them, and methods of their use” (Lexicon Pharmaceuticals, Inc., priority 2014, dated 2017)
# Legend:
# [1] = system: formalin-induced nociception in male C57 mice; assay: Formalin Assay (paw flinching); format: in vivo, mouse; conditions: male C57 mice, 1, 3, 10 and 30 mpk, given 30 minutes prior to formalin; one-way ANOVA P<0.01 dose effect; FIG. 4 and 5
# Experimental: Mice were tested for nociception with Automatic Nociception Analyzers (purchased from the Ozaki lab at University of California, San Diego). A metal band was placed around the left hind paw of each mouse with superglue 30 minutes prior to testing. After the 30-minute acclimation period, 20 μl of 5% formalin was subcutaneously injected in the dorsal surface of the left hind paw. Mice were individually housed in cylindrical chambers for 45 minutes. Fresh 5% formalin solution was prepared by diluting formaldehyde (Formalde-fresh 20%, Fisher Scientific, Fair Lawn, N.J.) with distilled water. Investigatory compounds were administered 30 minutes prior to formalin injection.
# A computer software recorded flinches per minute, total flinches for Phase I (acute phase=first 8 minutes), and total flinches for Phase II (tonic phase between 20-40 minutes) through an electromagnetic field. See Yaksh T L, Ozaki G, McCumber D, Rathbun M, Svensson C, Malkmus S, Yaksh M C. An automated flinch detecting system for use in the formalin nociceptive bioassay. J Appl Physiol., 2001; 90:2386-402.
# [2] = biological target: T1, AAK1 (full length human, NCBI accession no. NP_055726.2) (Homo sapiens, UniProt Q2M2I8); assay: P81 Filter Plate Assay; format: biochemical; set-up: NP_055726.2; conditions: 0.2 nM AAK1 and 2 μM ATP in 2× mixes, 33P-ATP, one hour at RT; read-out: P81 assay result (inhibition of AAK1 phosphorylation of Mu2)
# T1 sequence (Q2M2I8 1-863 isoform Q2M2I8-2): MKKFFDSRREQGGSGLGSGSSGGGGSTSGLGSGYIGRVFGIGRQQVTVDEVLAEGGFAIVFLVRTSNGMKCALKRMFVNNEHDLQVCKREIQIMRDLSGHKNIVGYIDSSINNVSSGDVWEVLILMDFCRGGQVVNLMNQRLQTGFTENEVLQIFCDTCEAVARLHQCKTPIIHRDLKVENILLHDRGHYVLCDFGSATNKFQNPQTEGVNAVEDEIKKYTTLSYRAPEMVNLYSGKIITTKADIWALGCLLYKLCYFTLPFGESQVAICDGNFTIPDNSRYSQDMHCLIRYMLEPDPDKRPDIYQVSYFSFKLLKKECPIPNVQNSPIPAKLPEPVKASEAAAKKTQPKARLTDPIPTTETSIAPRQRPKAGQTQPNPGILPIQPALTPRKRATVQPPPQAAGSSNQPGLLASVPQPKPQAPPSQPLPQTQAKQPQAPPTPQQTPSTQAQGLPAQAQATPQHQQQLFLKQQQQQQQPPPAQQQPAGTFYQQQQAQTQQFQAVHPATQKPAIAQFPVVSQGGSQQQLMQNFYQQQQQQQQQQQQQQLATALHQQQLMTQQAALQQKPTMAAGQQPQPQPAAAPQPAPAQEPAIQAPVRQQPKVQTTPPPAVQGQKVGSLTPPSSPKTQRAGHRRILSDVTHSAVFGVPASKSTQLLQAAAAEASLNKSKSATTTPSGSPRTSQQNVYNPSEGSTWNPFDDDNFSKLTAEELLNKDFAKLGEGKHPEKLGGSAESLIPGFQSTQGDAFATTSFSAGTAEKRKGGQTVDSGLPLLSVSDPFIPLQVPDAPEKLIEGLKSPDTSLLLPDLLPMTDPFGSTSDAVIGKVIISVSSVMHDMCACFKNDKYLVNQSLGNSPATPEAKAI
# Experimental: Compounds were serially diluted into a Labcyte LDV plate (Labcyte, cat #LP-0200) using a Mutiprobe (PerkinElmer) and Biomek FX (Beckman Coulter) so that the highest compound concentration was at 96 μM. Compounds were then pinged (75 nL per well) into a Greiner 384-well reaction plate (Greiner, #781076) using an ECHO 550 Liquid Handler (Labcyte). A total of 12 μl reaction buffer (IMAP buffer containing Tween and DTT, from Molecular Devices) was then added to each well of columns 1 and 13 for the negative controls and 12 μl of 2×AAK1 (0.2 nM full-length human protein, NCBI accession no. NP_055726.2) was added to the remaining wells. Enzyme was then pre-incubated with compound for 10 minutes at RT. Reactions were initiated upon Minitrak (PerkinElmer) addition of 12 μl substrate mix containing 2× Mu2 (0.2 μM, full length human protein), 2× cold ATP (2 μM), and 1.3 μCi of hot ^33P-ATP. Reactions proceeded for one hour at RT. Meanwhile, Millipore 384-well P81 filter plates (Millipore, catalog #MZPHNOW10) were placed on a plate washer (Zoom ZW, from Titertek) and pre-wet with 50 μl 1% phosphoric acid. […] The bottom of each filter plate was sealed followed by addition of 20 μl Microscint 40 to each well, sealing the top of the plates with Flashplate cover, and then waiting one hour until reading on the TopCount (PerkinElmer).
# [3] = system: tactile allodynia after spinal nerve ligation in mice; assay: Mouse Chung Assay (spinal nerve ligation, von Frey tactile allodynia); format: in vivo; conditions: P<0.0001 in RM ANOVA, FIG. 6
# Excerpt: The compound 3-methyloxetan-3-yl-4-(3-(2-methoxypyridin-3-yl)pyrazolo[1,5-a]pyrimidin-5-yl)piperazine-1-carboxylate was studied in the Chung assay. See Chaplan S R, Bach F W, Pogrel J W, Chung J M, Yaksh T L., Quantitative assessment of tactile allodynia in the rat paw, J Neurosci Methods 1994; 53:55-63; Chung J M, Kim H K, Chung K., Segmental spinal nerve ligation model of neuropathic pain, Methods Mol Med. 2004; 99:35-45.
# Wild-type hybrid (C57BL/6J-Tyr^c-Brd×129S5/SvEvBrd) male mice were between 5-7 weeks of age at the time of spinal nerve ligation by the conventional Chung protocol. Spinal nerve ligation was carried out according to the procedure devised by Kim and Chung with modifications. Briefly, mice were anesthetized with isoflurane (2% at the oxygen flow rate of […]). A skin incision (1 cm) was made 1 mm to the left of the dorsal midline, using the level of iliac crests as the mid point of the incision. […] In an initial experiment using hybrid mice, the presumptive locations of spinal nerve L5 and L6 were determined by using the sacroiliac junction as the landmark to locate L6, as previously described in SNL models in rats and mice. […] Mice were individually housed after the procedure and were monitored until complete recovery from anesthesia. […]
# [4] = biological target: T1, AAK1 (full length human, NCBI accession no. NP_055726.2); assay: HEK281 Cell-Based Assay (phospho-mu2 Western blot in HEK293F cells transfected with AAK1 and AP2M1); set-up: HA; expressed in transfected cells; host or cells: HEK293F; conditions: 3 hours incubation, read-out: HEK281 cell-based assay IC50 (inhibition of mu2 phosphorylation)
# Experimental: HEK293F cells were cultured in media containing DMEM (Gibco, cat. #11965), 10% FBS (SAFC Biosciences, cat. #12103C), 1×GPS (glutamine, penicillin and streptomycin). On day one, cells were plated on a 10 cm dish so that they are ˜80% confluent at time of transfection. Roughly 12 million cells were in a 10 cm dish at time of transfection. On day two, each dish was transfected with 48 ug DNA and 144 ul Lipofectamine 2000 (Invitrogen, cat. #11668-019). The DNA was comprised of a mixture (per 10 cm dish) containing 3 ug AAK1/HA/pIRES (full length human, NCBI accession no. NP_055726.2), 45 μg Flag/AP2MI/pcDNA (full length human), and 1.5 ml OPTI-MEM. The Lipofectamine 2000 is made up of a mixture (per 10 cm dish) containing 144 μl Lipofectamine 2000 and 1.5 ml OPTI-MEM. Each mixture was transferred to individual 15 ml tubes and incubated at RT for 5 minutes, and then the two mixes were combined and incubated at RT for 20 minutes. Growth media was then aspirated from each 10 cm plate and replaced with 10 ml of DMEM+10% FBS (no GPS). Finally, 3 ml DNA/Lipofectamine mix was added to each 10 cm dish and mix gently followed by incubate of plate overnight at 37° C. and 5% CO2.
# On day three, compounds were diluted in 100% DMSO at 1000× final concentration, followed by 3-fold serial dilutions for a total of 5 concentrations tested. Four compounds were tested per 10 cm dish. […]
# PC12 cells = conditions: Kuai et al. 2011; cited from earlier work
# AAK1 = AAK1 (Homo sapiens, UniProt Q2M2I8); conditions: cited from earlier work
# Sequence of AAK1 (Q2M2I8 whole entry, species assumed): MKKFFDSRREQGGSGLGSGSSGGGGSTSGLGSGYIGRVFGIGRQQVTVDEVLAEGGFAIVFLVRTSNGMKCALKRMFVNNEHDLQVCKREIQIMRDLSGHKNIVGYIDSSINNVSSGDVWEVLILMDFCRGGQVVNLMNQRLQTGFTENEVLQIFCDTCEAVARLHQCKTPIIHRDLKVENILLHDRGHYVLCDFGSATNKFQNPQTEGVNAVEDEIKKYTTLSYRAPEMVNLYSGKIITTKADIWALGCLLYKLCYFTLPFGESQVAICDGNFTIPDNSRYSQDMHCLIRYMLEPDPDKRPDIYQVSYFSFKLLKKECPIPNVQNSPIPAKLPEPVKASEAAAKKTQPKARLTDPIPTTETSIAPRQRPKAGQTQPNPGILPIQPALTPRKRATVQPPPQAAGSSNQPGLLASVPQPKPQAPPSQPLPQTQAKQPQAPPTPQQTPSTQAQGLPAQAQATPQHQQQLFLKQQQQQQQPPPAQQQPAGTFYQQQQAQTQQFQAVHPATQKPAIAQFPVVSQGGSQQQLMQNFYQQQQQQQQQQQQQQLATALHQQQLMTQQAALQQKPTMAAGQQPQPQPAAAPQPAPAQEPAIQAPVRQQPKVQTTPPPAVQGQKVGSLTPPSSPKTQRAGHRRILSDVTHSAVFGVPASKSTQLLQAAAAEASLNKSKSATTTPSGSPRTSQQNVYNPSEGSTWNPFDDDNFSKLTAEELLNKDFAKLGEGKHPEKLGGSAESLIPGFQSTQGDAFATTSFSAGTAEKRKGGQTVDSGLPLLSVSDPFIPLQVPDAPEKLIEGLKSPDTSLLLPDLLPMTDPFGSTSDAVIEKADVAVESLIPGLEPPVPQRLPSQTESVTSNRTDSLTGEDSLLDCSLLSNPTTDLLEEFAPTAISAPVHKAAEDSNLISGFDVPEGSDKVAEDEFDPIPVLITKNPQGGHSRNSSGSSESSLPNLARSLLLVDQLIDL
Structure (SMILES),Formalin phase 2 (tonic phase) flinches versus vehicle [1],IC50 [2],Effect in the Chung assay (von Frey 50% withdraw threshold) [3],IC50 [4],Effect on Neuregulin-1 induced neurite outgrowth (PC12 cells),Effect on AAK1 kinase activity (AAK1)
"COc1ncccc1-c1cnn2ccc(N3CCN(C(=O)OC4(C)COC4)CC3)nc12 [3-methyloxetan-3-yl-4-(3-(2-methoxypyridin-3-yl)pyrazolo[1,5-a]pyrimidin-5-yl)piperazine-1-carboxylate]",dramatic effect,0.9 nM,"dose-dependent, significantly significant effect",4.7 nM,,
COC(=O)[C@@]1(O)C[C@H]2O[C@]1(C)n1c3ccccc3c3c4c(c5c6ccccc6n2c5c31)C(=O)NC4 [K252a],,,,,potentiation of Neuregulin-1 induced neurite outgrowth,inhibits AAK1 kinase activity
